According to patent publication US11434227B2, “Broad spectrum antibacterial activity of novel bisbenzimidazoles targeting topoisomerase IA and the synergistic composition of bisbenzimidazole with efflux pump inhibitors against pathogenic bacteria” (Jawaharlal Nehru University (JNU), priority 2016, dated 2022):
Converted amounts (≈) assume the structure as drawn.

Key:
E. coli ATCC 25922 = test: Neutropenic thigh infection model
Description: The neutropenic mice thigh infection model, fully described by. Craig, was used in this study. Female Balb/c mice (6 mice per dosing group) weighing 20-25 g were rendered neutropenic with 2 intraperitoneal injections of cyclophosphamide (150 mg/kg of body weight 4 days prior to bacterial inoculation and 100 mg/kg 1 day before inoculation) 2 h prior to bacterial inoculation. […] Bacteria were injected into the right thigh of each mouse at time zero. […] Neutropenia was defined as an absolute neutrophil count of 500 polymorphonuclear leukocytes/cm^3 of blood. The bacterial suspension was diluted to a concentration of 10^6 CFU/mL with normal saline. Then, 0.1 mL of the bacterial suspension was injected into each posterior thigh muscle 2 h after the second dose of cyclophosphamide was administered. […] Twenty-four hours after drug treatment was begun, the mice were humanely sacrificed. Right thigh muscles from each mouse were aseptically collected, homogenized and serially diluted 1:10 in phosphate buffer saline, and processed for quantitative cultures.

E. coli Topoisomerase IA = E. coli Topoisomerase IA (Escherichia coli, UniProt P06612); test: Topoisomerase IA cleavage and religation assay; assay type: biochemical; details: biochemical assays and computational studies
Description: Compounds at different concentrations were added to DNA cleavage reaction mixtures (20 μl) containing 50 mM TrisHCl, pH 7.5, 2 mM MgCl2 0.2 mM DTT, 0.5 mM EDTA, 30 μg/ml BSA, 25 μg/ml of pHOT1 having specific site for DNA, 40 units of E. coli Topoisomerase IA and ligands was incubated at 37° C. for 30 min. The reactions was then terminated by adding 1% SDS and 150 μg/m Proteinase K, and incubated further for 1 h at 37° C. The DNA samples was electrophoresed in 1% agarose gel in 0.5×TBE. Ethidium bromide at a finial concentration of 0.5 μg/ml was included in the gel to resolve slowly migrating nicked product (cleavable complex) from the supercoiled DNA molecules.

E. coli K12 mutant ΔompF = test: Susceptibility of E. coli K12 and mutants (MIC90); details: Escherichia coli
Description: (§1) MICs were determined by the broth microdilution method according to CLSI methods (Clinical and Laboratory Standards Institute, 2005). Inoculants were incubated at 37° C. on cation adjusted Mueller Hinton (MH) Broth for 18 to 24 h. Compound were dissolved in media to 10 doubling dilutions from 128 to 0.125 μg/mL. All the bacterial strains were grown in 96 well plate with low evaporation lid (Falcon, Becton Dickinson) in presence of derivatives of benzimidazoles at 0.125, 0.25, 0.5, 1, 2, 4, 8, 16, 32, 64, 128, 256 μg/mL concentrations. […] Plates were read by Tecan Micro-plate Reader at 600 nm.

E. coli KK45 = test: HN12b in combination with efflux pump inhibitors (CB method, FICI)
Description: (§2) 96-well microtiter plates containing MIC25 concentrations of the Efflux pump inhibitor (CCCP, PAβN) and HN12b antimicrobial drugs alone and in CB combination were used. The MICs of the individual drugs HN12b, PAβN and CCCP (0.25 to 128 μg/ml) and of the combinations were determined using the broth microdilution technique as recommended by the CLSI. Briefly, the broth microdilution plates were inoculated with each test organism to yield the appropriate density (10^5 CFU/ml) in 100 μl Mueller-Hinton broth (MHB) and incubated for 24 h at 37° C. in ambient air. One well with no antibiotic was used as a positive growth control on each plate. Plates were read for visual turbidity, and results were recorded after 24 h of incubation at 37° C. in ambient air by using a magnifying mirror reader, as turbidity in wells indicated growth of the microorganism. The MIC was determined as the well in the microtiter plate with the lowest drug concentration at which there was no visible growth. […] MICAB was defined as the MIC of drug A in the presence of drug B; MICBA was defined as the MIC of drug B in the presence of drug A.
(§3) The fractional inhibitory concentration index (FICI) was calculated for each antibiotic in each combination by using the following formula: FICA+FICB=FICI, where FICA equals the MIC of drug A in combination divided by the MIC of drug A alone and FICB equals the MIC of drug B in combination divided by the MIC of drug B alone. The FICIs were interpreted as follows: FICI of ≤0.5 will correspond to synergy; FICI of >0.5 to ≤1 will correspond to additivity; FICI of >1 to ≤4 will correspond to no interaction (indifference), and FICI of >4 will correspond antagonism.

E. coli 555^R = test: Susceptibility (MIC, PAE, MBC), broth microdilution; details: Escherichia coli
Description: as §1

A. baumannii (MTCC1920) = test: HN12b in combination with efflux pump inhibitors (CB method, FICI)
Description: as §2, §3

[1] = system: Klebsiella planticola (K589); test: Susceptibility (MIC50/MIC90), broth microdilution
Description: as §1

[2] = system: E. coli K12 mutant ΔTopIB; test: Susceptibility of E. coli K12 and mutants (MIC90); details: Escherichia coli
Description: as §1

Enterococcus sp. (432) = test: Susceptibility (MIC50/MIC90), broth microdilution
Description: as §1

[3] = system: Pseudomonas aeruginosa (Ps162); test: Susceptibility (MIC50/MIC90), broth microdilution
Description: as §1

[4] = system: Providencia sp. (MTCC 2102); test: HN12b in combination with efflux pump inhibitors (CB method, FICI); details: for FICI: Providencia sp. (MTCC 2102)
Description: as §2, §3

Enterococcus sp. (1121) = test: as above
Description: as §2, §3

Staphylococcus sp. (976) = test: Susceptibility (MIC50/MIC90), broth microdilution
Description: as §1

[5] = system: Acinetobacter baumannii (AB312); test: Susceptibility (MIC50/MIC90), broth microdilution
Description: as §1

E. coli K12 mutant ΔemrA = test: Susceptibility of E. coli K12 and mutants (MIC90); details: Escherichia coli
Description: as §1

[6] = system: isogenic efflux deleted strains; test: Susceptibility of isogenic efflux deleted strains versus wild type; assay type: cell-based, Escherichia coli; details: in comparison to wild type strains
[7] = A. baumannii (MTCC1920), HN12b + CCCP
[8] = Enterococcus sp. (1121), HN12b + CCCP

Sequence of E. coli Topoisomerase IA (P06612 whole entry): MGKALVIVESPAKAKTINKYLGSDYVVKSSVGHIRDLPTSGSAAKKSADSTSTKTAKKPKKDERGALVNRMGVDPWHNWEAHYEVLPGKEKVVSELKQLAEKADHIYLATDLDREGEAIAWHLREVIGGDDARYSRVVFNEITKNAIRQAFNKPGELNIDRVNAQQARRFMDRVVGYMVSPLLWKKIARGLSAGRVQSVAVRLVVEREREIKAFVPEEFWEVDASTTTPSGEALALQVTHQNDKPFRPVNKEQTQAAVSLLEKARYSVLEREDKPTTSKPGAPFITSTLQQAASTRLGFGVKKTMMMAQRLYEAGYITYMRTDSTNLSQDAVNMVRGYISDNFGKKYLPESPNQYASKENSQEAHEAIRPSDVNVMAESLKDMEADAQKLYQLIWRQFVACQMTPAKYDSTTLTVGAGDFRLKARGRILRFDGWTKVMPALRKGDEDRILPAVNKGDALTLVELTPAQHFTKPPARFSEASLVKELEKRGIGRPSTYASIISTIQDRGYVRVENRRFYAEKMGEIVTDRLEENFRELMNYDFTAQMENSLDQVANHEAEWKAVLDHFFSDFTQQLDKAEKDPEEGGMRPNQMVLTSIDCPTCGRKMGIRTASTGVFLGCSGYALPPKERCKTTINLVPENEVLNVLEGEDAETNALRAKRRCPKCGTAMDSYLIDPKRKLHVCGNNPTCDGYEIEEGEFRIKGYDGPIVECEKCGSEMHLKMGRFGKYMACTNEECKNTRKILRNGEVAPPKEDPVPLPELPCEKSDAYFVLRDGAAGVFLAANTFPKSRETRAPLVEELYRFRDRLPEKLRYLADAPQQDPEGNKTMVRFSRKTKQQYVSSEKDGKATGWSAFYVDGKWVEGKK

Which in vivo efficacy (E. coli ATCC 25922; Neutropenia thigh model, E. coli ATCC 25922) does the source give for `CCCN1CCN(c2nc3ccc(-c4nc5ccccc5[nH]4)cc3[nH]2)CC1` [HN12b, 2′-(4-propylpiperazine-1-yl)-1H, 3′H-2,5′-bibenzimidazole] here?
The in vivo efficacy was “good in vivo efficacy”.

What about the “Dose at 1 log reduction” value (E. coli ATCC 25922; Neutropenic Thigh, ATCC25922) of the same compound?
Its value is 3 mg/kg/bw/day.

What about the “Dose at 3 log reduction” value (E. coli ATCC 25922; Neutropenic Thigh, ATCC25922) of the same compound?
The value was 5 mg/kg/bw/day.

And the “mechanism of inhibition (Mg^2+ chelation)” value (E. coli Topoisomerase IA)?
Its value is “chelates Mg^2+ required for, the religation of DNA”.

And the MIC90 (E. coli K12 mutant ΔompF)?
Its MIC90 is 5.4 µg/mL (≈ 15 µM).

What about the FICI (E. coli KK45; E. coli KK45, HN12b + CCCP) of the same compound?
The FICI was 0.3.

What about the Interpretation (E. coli KK45; E. coli KK45, HN12b + CCCP) of the same compound?
Its Interpretation is “Synergy (FICI of ≤0.5 will correspond to synergy)”.

What about the FICI (E. coli KK45; E. coli KK45, HN12b + PAβN) of the same compound?
Its FICI is 0.7.

What about the MIC90 (E. coli KK45; Escherichia coli, KK45) of the same compound?
The MIC90 was 16 µg/mL.

And the MBC (E. coli 555^R)?
The MBC was 8 µg/mL (≈ 22.2 µM).

And the MIC50 (E. coli 555^R)?
Its MIC50 is 4 µg/mL (≈ 11.1 µM).

And the MIC90 (E. coli 555^R)?
The MIC90 was 6.8 µg/mL (≈ 18.9 µM).

And the FICI (A. baumannii (MTCC1920); [7])?
The FICI was 0.5.

What about the Interpretation (A. baumannii (MTCC1920); [7]) of the same compound?
The Interpretation was “Synergy (FICI of ≤0.5 will correspond to synergy)”.

What about the FICI (A. baumannii (MTCC1920); A. baumannii (MTCC1920), HN12b + PAβN) of the same compound?
Its FICI is 0.9.

What about the MIC90 (A. baumannii (MTCC1920); Acinetobacter baumannii, MTCC1920) of the same compound?
The MIC90 was greater than 128 µg/mL.

What about the MIC50 [1] of the same compound?
The MIC50 was 7.4 µg/mL (≈ 20.5 µM).

What about the MIC90 [1] of the same compound?
Its MIC90 is 97.4 µg/mL (≈ 270 µM).

And the MIC90 [2]?
Its MIC90 is 3.8 µg/mL (≈ 10.5 µM).

And the MIC50 (Enterococcus sp. (432))?
Its MIC50 is less than 0.25 µg/mL.

And the MIC90 (Enterococcus sp. (432))?
Its MIC90 is 8.25 µg/mL (≈ 22.9 µM).

What about the MIC50 [3] of the same compound?
The MIC50 was 2.94 µg/mL (≈ 8.16 µM).

What about the MIC90 [3] of the same compound?
Its MIC90 is 5.94 µg/mL (≈ 16.5 µM).

What about the FICI ([4]; HN12b + CCCP) of the same compound?
The FICI was 0.6.

What about the FICI ([4]; HN12b + PAβN) of the same compound?
The FICI was 1.

And the MIC90 ([4]; Providencia, MTCC2102)?
The MIC90 was greater than 128 µg/mL.

What about the MIC90 (Enterococcus sp. (1121); Enterococcus) of the same compound?
Its MIC90 is 8 µg/mL.

And the FICI (Enterococcus sp. (1121); [8])?
The FICI was 0.5.

What about the Interpretation (Enterococcus sp. (1121); [8]) of the same compound?
The Interpretation was “Synergy (FICI of ≤0.5 will correspond to synergy)”.

And the FICI (Enterococcus sp. (1121); Enterococcus sp. (1121), HN12b + PAβN)?
The FICI was 1.

And the MIC50 (Staphylococcus sp. (976))?
The MIC50 was 0.31 µg/mL (≈ 0.86 µM).

What about the MIC90 (Staphylococcus sp. (976)) of the same compound?
The MIC90 was 15.3 µg/mL (≈ 42.5 µM).

What about the MIC50 [5] of the same compound?
The MIC50 was 3.8 µg/mL (≈ 10.5 µM).

What about the MIC90 [5] of the same compound?
The MIC90 was 3.8 µg/mL (≈ 10.5 µM).

What about the MIC90 (E. coli K12 mutant ΔemrA) of the same compound?
The MIC90 was 5.8 µg/mL (≈ 16.1 µM).

And the “sensitisation of efflux deleted strains” value [6]?
The value was “more sensitised”.
